Source: patent publication US11401277B2, “Anti-bacterial heterocyclic compounds and their synthesis” (Bugworks Research, Inc., priority 2017, dated 2022)
≈ marks a conversion by molar mass, not a printed value. Where “and” joins values, the source holds several entries; their conditions need not be identical. Identical values can stand only once. Like-named read-outs stand apart in the source and are kept apart here.

Columns and labels:
A. baumannii ATCC 19606 = test: MIC studies in LB Media; assay type: cell-based; details: Acinetobacter baumannii, ATCC19606, read-out: Minimum Inhibitory Concentration in LB Media, A. ba
Protocol: (§1) Bacterial cultures that were stored as glycerol stocks at −80° C. were sub cultured on LB agar plates to obtain isolated colonies. A single colony of each strain was cultured in LB broth. The cultures were incubated at 37° C., 200 rpm till they reach an optical density (OD at 600 nm) of 0.8 to 1. […] Test compounds were dissolved in dimethyl sulfoxide (DMSO) to a stock concentration of 4 mg/ml. A two-fold dilution series of this DMSO stock was prepared in a 96 well V bottom microtitre plate from rows A to H. A 3 μL volume of these dilutions were transferred to a 96-well flat bottom microtitre assay plate. Controls to monitor the effects of DMSO and media sterility were included. Each well was inoculated with 150 μL of the above diluted culture. The plates were incubated at 37° C. overnight in a humidified incubator. The following morning, the plates were read using a Spectrophotometer at 600 nm wavelength.

[1] = test system: Citrobacter freundii ATCC 43864; test: MIC studies in LB Media; assay type: cell-based; details: ATCC43864, read-out: Minimum Inhibitory Concentration in LB Media, C. fr
Protocol: as §1

E. coli ATCC 25922 = test: MIC studies in LB Media; assay type: cell-based; details: Escherichia coli, ATCC25922, read-out: Minimum Inhibitory Concentration in LB Media, E. co
Protocol: as §1

E. faecalis ATCC 29212 = test: MIC studies in LB Media; assay type: cell-based; details: Enterococcus faecalis, ATCC29212, read-out: Minimum Inhibitory Concentration in LB Media, E. fa
Protocol: as §1

[2] = test system: Enterobacter cloacae ATCC 13047; test: MIC studies in LB Media; assay type: cell-based; details: ATCC13047, read-out: Minimum Inhibitory Concentration in LB Media, E. cl
Protocol: as §1

K. pneumoniae ATCC 13883 = test: MIC studies in LB Media; assay type: cell-based; details: Klebsiella pneumoniae, ATCC13883, read-out: Minimum Inhibitory Concentration in LB Media, K. pn
Protocol: as §1

[3] = test system: Morganella morganii ATCC 25830; test: MIC studies in LB Media; assay type: cell-based; details: ATCC25830, read-out: Minimum Inhibitory Concentration in LB Media, M. mo
Protocol: as §1

P. aurigenosa ATCC 27853 = test: MIC studies in LB Media; assay type: cell-based; details: Pseudomonas aeruginosa, ATCC27853, read-out: Minimum Inhibitory Concentration in LB Media, P. ae
Protocol: as §1

[4] = test system: Proteus mirabilis ATCC 43071; test: MIC studies in LB Media; assay type: cell-based; details: ATCC43071, read-out: Minimum Inhibitory Concentration in LB Media, P. mi
Protocol: as §1

S. aureus ATCC 29213 = test: MIC studies in LB Media; assay type: cell-based; details: Staphylococcus aureus, ATCC29213, MIC = 90% inhibition of growth, read-out: Minimum Inhibitory Concentration in LB Media, S. au
Protocol: as §1

E. coli DNA gyrase = E. coli DNA gyrase (Escherichia coli, UniProt P0AES4+P0AES6); test: biochemical
E. coli topoisomerase IV = E. coli topoisomerase IV (Escherichia coli, UniProt P0AFI2+P20083); test: biochemical
E. coli clinical strains = test: Susceptibility (MIC50 and MIC90 determination) studies, clinical strains; assay type: cell-based; details: CLSI
[5] = Stability of IV formulation at room temperature; assay type: physicochemical; details: 10% L-ascorbic acid formulation
[6] = test system: K. pneumoniae [ATCC13883]; test: Neutropenic Thigh Infection Model in Rat, K. pneumoniae; assay type: in vivo; details: for MEAN ± SD (Log10 CFU/g thigh) / Mean Log 10 CFU/thigh reduction (wrt 2 h PI control: 5.04 Log10CFU/g thigh) / Log10 CFU/g thigh: i.v., 1 h infusion; for Log10 CFU/g thigh: individual animals, 10 hr post infection
[7] = test system: P. aeruginosa [ATCC27853]; test: Neutropenic Lung Infection Model in Rat; assay type: in vivo; details: i.v., 1 h infusion
Protocol: Animals were placed into an induction chamber and anaesthesia was induced by exposing the animals to 3-5% Isoflurane in an oxygen flow set at approximately (˜) 1 liter per minute (LPM). […] A gentle mixing of inoculum between two animals was followed for uniform distribution.
Meropenem was formulated in saline.
Entire Lung was aseptically isolated, weighed and placed into 1 mL of sterile CSDB broth, and homogenized (Omni Tip (220 V hand held)). Serial ten-fold dilutions of the lungs homogenates were prepared in sterile CSD broth and 0.05 mL of four dilutions for each tissue was plated onto CSDA agar plates. Bacterial colonies were enumerated following overnight incubation at 37° C. Bacterial densities were estimated as Log10 CFU/g lung. The Mean±SD Log10 CFU/g lung was estimated in each group.

[8] = Escherichia coli, E. coli clinical strains

E. coli DNA gyrase, sequence (P0AES4 whole entry, one chain of several): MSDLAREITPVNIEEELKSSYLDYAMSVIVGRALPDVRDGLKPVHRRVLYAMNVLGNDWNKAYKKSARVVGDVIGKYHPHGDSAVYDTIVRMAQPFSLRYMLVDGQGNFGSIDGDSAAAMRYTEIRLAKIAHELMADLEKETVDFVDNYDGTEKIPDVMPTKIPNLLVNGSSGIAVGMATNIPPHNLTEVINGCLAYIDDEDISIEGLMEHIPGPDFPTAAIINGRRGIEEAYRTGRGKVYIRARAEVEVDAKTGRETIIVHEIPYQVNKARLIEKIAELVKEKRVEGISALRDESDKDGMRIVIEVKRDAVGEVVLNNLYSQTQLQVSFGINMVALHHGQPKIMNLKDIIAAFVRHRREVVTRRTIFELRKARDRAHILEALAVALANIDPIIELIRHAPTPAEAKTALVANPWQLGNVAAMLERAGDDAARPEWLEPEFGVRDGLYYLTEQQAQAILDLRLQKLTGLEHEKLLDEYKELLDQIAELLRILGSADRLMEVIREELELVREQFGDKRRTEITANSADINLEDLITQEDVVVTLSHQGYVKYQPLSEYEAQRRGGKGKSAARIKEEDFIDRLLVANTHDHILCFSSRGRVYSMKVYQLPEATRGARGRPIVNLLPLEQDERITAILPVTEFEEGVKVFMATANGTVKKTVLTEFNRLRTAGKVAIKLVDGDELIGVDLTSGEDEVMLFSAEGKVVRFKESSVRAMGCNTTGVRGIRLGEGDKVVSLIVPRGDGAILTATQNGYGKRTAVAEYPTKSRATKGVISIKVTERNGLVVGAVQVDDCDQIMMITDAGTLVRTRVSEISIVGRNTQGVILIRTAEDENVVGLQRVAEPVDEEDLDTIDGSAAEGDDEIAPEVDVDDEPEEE
E. coli topoisomerase IV, sequence (P20083 whole entry): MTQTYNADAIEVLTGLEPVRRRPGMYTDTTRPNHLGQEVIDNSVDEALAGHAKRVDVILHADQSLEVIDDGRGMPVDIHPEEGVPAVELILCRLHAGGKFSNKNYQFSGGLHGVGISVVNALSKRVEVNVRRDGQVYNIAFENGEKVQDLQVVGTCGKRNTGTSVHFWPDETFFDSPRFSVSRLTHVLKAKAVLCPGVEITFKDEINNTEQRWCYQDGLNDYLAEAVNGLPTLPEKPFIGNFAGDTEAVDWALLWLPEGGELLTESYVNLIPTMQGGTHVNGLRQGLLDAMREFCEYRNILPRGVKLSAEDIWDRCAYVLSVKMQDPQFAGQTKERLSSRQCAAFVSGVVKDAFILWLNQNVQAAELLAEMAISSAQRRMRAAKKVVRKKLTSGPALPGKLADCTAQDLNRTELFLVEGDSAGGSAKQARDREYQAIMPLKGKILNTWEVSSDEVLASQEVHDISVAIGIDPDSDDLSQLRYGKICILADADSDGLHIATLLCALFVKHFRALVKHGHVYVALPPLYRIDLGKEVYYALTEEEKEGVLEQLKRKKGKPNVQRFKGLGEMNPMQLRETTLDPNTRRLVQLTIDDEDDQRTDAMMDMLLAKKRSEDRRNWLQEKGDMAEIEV
E. coli topoisomerase IV, sequence (P0AFI2 whole entry): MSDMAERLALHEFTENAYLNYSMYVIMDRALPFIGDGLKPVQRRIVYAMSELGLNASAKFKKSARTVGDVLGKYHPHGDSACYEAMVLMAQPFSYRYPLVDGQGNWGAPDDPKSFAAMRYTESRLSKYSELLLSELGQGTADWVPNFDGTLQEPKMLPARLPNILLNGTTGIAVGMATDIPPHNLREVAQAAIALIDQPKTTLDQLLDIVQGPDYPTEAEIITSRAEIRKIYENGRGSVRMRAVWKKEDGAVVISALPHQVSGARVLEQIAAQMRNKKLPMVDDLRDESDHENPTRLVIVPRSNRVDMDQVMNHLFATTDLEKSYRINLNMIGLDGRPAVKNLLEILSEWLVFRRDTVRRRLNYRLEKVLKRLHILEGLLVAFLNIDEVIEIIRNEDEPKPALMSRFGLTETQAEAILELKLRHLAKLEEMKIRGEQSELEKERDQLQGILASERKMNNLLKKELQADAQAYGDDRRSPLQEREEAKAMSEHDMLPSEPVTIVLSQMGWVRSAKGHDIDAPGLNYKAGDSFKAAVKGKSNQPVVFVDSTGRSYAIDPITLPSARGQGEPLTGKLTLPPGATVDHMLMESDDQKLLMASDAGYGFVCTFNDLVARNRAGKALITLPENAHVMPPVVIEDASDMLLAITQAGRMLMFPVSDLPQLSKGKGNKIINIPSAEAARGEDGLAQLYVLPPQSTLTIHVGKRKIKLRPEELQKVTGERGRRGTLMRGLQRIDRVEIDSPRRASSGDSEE

Cn1c(=O)ccc2ccc(F)c(OCCNC[C@H]3CN(c4cnc5c(n4)NC(=O)CO5)C(=O)O3)c21 [Compound 2, (S)-6-(5-(((2-((7-fluoro-1-methyl-2-oxo-1,2-dihydroquinolin-8-yl)oxy)ethyl)amino)methyl)-2-oxooxazolidin-3-yl)-2H-pyrazino[2,3-b][1,4]oxazin-3(4H)-one]
MIC (A. baumannii ATCC 19606): 0.06 µg/mL (≈ 0.124 µM) | MIC [1]: ≤ 0.03 µg/mL | MIC (E. coli ATCC 25922): 0.03 µg/mL (≈ 0.0619 µM) | MIC (E. faecalis ATCC 29212): 0.06 µg/mL (≈ 0.124 µM) | MIC [2]: 0.125 µg/mL (≈ 0.258 µM) | MIC (K. pneumoniae ATCC 13883): 0.06 µg/mL (≈ 0.124 µM) | MIC [3]: 0.125 µg/mL (≈ 0.258 µM) | MIC (P. aurigenosa ATCC 27853): 0.5 µg/mL (≈ 1.03 µM) | MIC [4]: 0.125 µg/mL (≈ 0.258 µM) | MIC (S. aureus ATCC 29213): ≤ 0.015 µg/mL | IC50 (E. coli DNA gyrase; gel based supercoiling assay, read-out: E. coli DNA Gyrase IC50): 12 nM | IC50 (E. coli DNA gyrase; unit inferred, read-out: IC50 E. coli DNA Gyrase): ≤ 50 nM | IC50 (E. coli topoisomerase IV; gel based decatenation assay, read-out: E. coli Topo IV IC50): 45 nM | IC50 (E. coli topoisomerase IV; unit inferred, read-out: IC50 E. coli Topo IV): ≤ 50 nM | Minimum (MIC) (E. coli clinical strains; E. coli clinical strains, MIC50/MIC90 in μg/ml): 0.03 µg/mL | MIC ATCC25922 (E. coli clinical strains; E. coli reference strain ATCC25922, MIC50/MIC90 in μg/ml): 0.03 µg/mL (≈ 0.0619 µM) | MIC50 (E. coli clinical strains; [8]): 0.25 µg/mL (≈ 0.516 µM) | MIC90 (E. coli clinical strains; [8]): 0.25 µg/mL (≈ 0.516 µM) | IV formulation stable at room temperature [5]: more than 24 hours | MEAN ± SD (Log10 CFU/g thigh) ([6]; 3 mg/kg): 3.91 ± 0.04 Log10 CFU/g thigh | Mean Log 10 CFU/thigh reduction (wrt 2 h PI control: 5.04 Log10CFU/g thigh) ([6]; 3 mg/kg): 1.13 Log 10 CFU/thigh | Log10 CFU/g thigh ([6]; 3 mg/kg): 3.95 Log10 CFU/g thigh and 3.87 Log10 CFU/g thigh and 3.91 Log10 CFU/g thigh | MEAN ± SD (Log10 CFU/g thigh) ([6]; 10 mg/kg): 3.61 ± 0.31 Log10 CFU/g thigh | Mean Log 10 CFU/thigh reduction (wrt 2 h PI control: 5.04 Log10CFU/g thigh) ([6]; 10 mg/kg): 1.43 Log 10 CFU/thigh | Log10 CFU/g thigh ([6]; 10 mg/kg): 3.74 Log10 CFU/g thigh and 3.26 Log10 CFU/g thigh and 3.84 Log10 CFU/g thigh | efficacy with respect to 2 h Post Infection (PI) control (in words) ([6]; 3, 10 and 30 mg/kg, rat thigh K. pneumoniae): significant dose dependent bactericidal efficacy | MEAN ± SD (Log10 CFU/g Lung) ([7]; 3 mg/kg): 8.09 ± 0.14 Log10 CFU/g Lung | Mean Log 10 CFU/g lung reduction (wrt 4 h PI control: 6.52 Log10CFU/g lung) ([7]; 3 mg/kg): −1.57 Log 10 CFU/g lung | Log10 CFU/g Lung ([7]; 3 mg/kg, individual animals, 24 h post infection): 7.99 Log10 CFU/g Lung and 8.02 Log10 CFU/g Lung and 8.26 Log10 CFU/g Lung | MEAN ± SD (Log10 CFU/g Lung) ([7]; 10 mg/kg): 6.93 ± 0.44 Log10 CFU/g Lung | Mean Log 10 CFU/g lung reduction (wrt 4 h PI control: 6.52 Log10CFU/g lung) ([7]; 10 mg/kg): −0.41 Log 10 CFU/g lung
